From the supplement of paper PMC7801607

The compounds below were run on Plasmodium falciparum Dd2 asexual blood stage.

| SMILES | IC50 |
| --- | --- |
| O=C(Nc1nnc(-c2ccc(Cl)cc2)o1)c1ccc(F)cc1 | > 5 µM |
| Cn1c2ccccc2c(=O)c2c(O)cccc21 | > 5 µM |
| O=C(O)c1ccccc1Sc1ncnc2sc3c(c12)CCC3 | > 5 µM |
| NC(=O)c1ccccc1NC(=O)c1ccc(C(=O)Nc2ccccc2C(N)=O)cc1 | > 5 µM |
| COc1cccc(N2CCN(C3=Nc4c(F)cccc4[C@H](CC(=O)O)N3c3cc(C(F)(F)F)ccc3OC)CC2)c1 | > 5 µM |
| COc1cc(C2C3=C(CC(C)(C)CC3=O)Nc3ccccc3N2C(C)=O)ccc1OCc1ccccc1 (stereo not drawn) | > 5 µM |
| COC(=O)Nc1nc2ccccc2[nH]1 | > 5 µM |
| O=c1[nH]c(=O)n(Cc2cccc(Oc3ccccc3)c2)cc1Nc1ccccc1 | > 5 µM |
| Nc1nc(=O)c(Br)c(-c2cccc(Cl)c2)[nH]1 | > 5 µM |
| N#C/C(=C1/SC[C@H](c2ccc(Cl)cc2Cl)S1)n1ccnc1 | > 5 µM |
| N=C(N)c1ccc(COc2ccc(Cl)cc2)cc1 | > 5 µM |
| CCCC1(C2CC2)c2cc(Cl)ccc2NC(=O)N1C (stereo not drawn) | > 5 µM |
| Nc1ccc2oc(=O)ccc2c1I | > 5 µM |
| O=S(=O)(NCB(O)O)c1cc2c(Cl)ccc(Cl)c2s1 | > 5 µM |
| COc1ccc2c(c1)cc(CNC(=O)c1cc3ccccc3o1)n2CC(=O)O | > 5 µM |
| O=P(O)(O)C(CCCc1cccc(Oc2ccccc2)c1)S(=O)(=O)O (stereo not drawn) | > 5 µM |
| COc1ccc(COc2cc3oc(=O)c4cc(C(C)O)ccc4c3cc2OC)cc1 (stereo not drawn) | > 5 µM |
| Oc1ccc2[nH]c(-c3ccccc3)nc2c1 | > 5 µM |
| CC(Cc1ccccc1)C(=O)Nc1ccc(Cl)cc1C(=O)O (stereo not drawn) | > 5 µM |
| OC[C@@H]1CC[C@H](n2cnc3c(O)ncnc32)O1 | > 5 µM |
| O=[N+]([O-])/C(Br)=C/c1ccc(Br)o1 | > 5 µM |
| CC(C)Oc1cccc(NC(=O)c2ccccc2C(F)(F)F)c1 | > 5 µM |

| SMILES | IC50 |
| --- | --- |
| O=C(O)c1ccc(-c2ccc(O[C@H]3O[C@H](CO)[C@@H](O)[C@H](O)[C@@H]3O)cc2)cc1 | > 5 µM |
| O=C1[C@H](CC[C@H](O)c2ccc(F)cc2)[C@@H](c2ccc(O)cc2)N1c1ccc(F)cc1 | > 5 µM |
| CCCCOC(=O)Nc1cc2nc(C3CCCCC3)[nH]c2cc1N(CC)CC | 1.79 µM |
| Clc1ccc(COC(Cn2ccnc2)c2ccc(Cl)cc2Cl)c(Cl)c1 (stereo not drawn) | > 5 µM |
| C[C@@H](NC(=O)c1ccccc1-c1ccccc1)B(O)O | > 5 µM |
| Nc1nc(N)c2c(Sc3ccccc3)cccc2n1 | > 5 µM |
| O=C(NCCN1CCCCC1)c1cccc(C(F)(F)F)c1 | > 5 µM |
| CC(N)C(=O)NC(CCCCN)C(=O)NC(CCCNC(=N)N)C(=O)NC(Cc1c[nH]cn1)C(=O)NC(Cc1c[nH]cn1)C(=O)NCC(=O)NC(Cc1ccc(O)cc1)C(=O)NC(CCCCN)C(=O)NC(CCCNC(=N)N)C(=O)NC(CCCCN)C(=O)NC(Cc1ccccc1)C(=O)NC(Cc1c[nH]cn1)C(N)=O (stereo not drawn) | > 5 µM |
| CCOc1ccc(/C=N/NC(=O)C2CC2c2ccc(C(C)(C)C)cc2)cc1OCC (stereo not drawn) | > 5 µM |
| COc1ccc(C(C)(C)C)cc1NC(=O)C(=O)c1ccc(OCCN2CCOCC2)c2ccccc12 | > 5 µM |
| CC1(C)Cc2c(C#N)c(SCCc3ccccc3)nc(N3CCOCC3)c2CO1 | > 5 µM |
| COc1cc(Cc2cc(N)nc(N)n2)cc(OC)c1OC | > 5 µM |
| N#Cc1cc([N+](=O)[O-])ccc1Oc1ccccc1Cl | > 5 µM |
| N[C@H]1CCC[C@H]1C(=O)O | > 5 µM |
| NCCCc1ccccc1C(=O)Nc1ncc([N+](=O)O)s1 | > 5 µM |
| c1cnc(NCc2ccc(CNc3ncccn3)cc2)nc1 | > 5 µM |
| NC(=O)c1nccn([C@@H]2O[C@H](CO)[C@@H](O)[C@H]2O)c1=O | > 5 µM |
| O=C1NC(=O)C(Br)=C1Br | > 5 µM |
| CCc1cc(CCCOc2c(C)cc(-c3noc(C(F)(F)F)n3)cc2C)on1 | > 5 µM |
| Nc1cc(-c2nc3ccccc3[nH]2)n[nH]c1=O | > 5 µM |
| C[C@H](c1cccc2ccccc12)N(C)Cc1ccccc1 | > 5 µM |
| O=C(NO)C1(CS(=O)(=O)c2ccc(Oc3ccc(Cl)cc3)cc2)CCOCC1 | > 5 µM |

| SMILES | IC50 |
| --- | --- |
| Nc1cccc(-c2nc(N)nc(NC3Cc4ccccc4C3)n2)c1 | > 5 µM |
| C/C(=N\NC(=O)C1CC1c1ccccc1)c1ccc(NC(=O)c2ccco2)cc1 (stereo not drawn) | > 5 µM |
| OB1OCc2c1ccc(Cl)c2F | > 5 µM |
| CSc1ccc2c(c1)C(N1CCN(C)CC1)Cc1ccccc1S2 (stereo not drawn) | > 5 µM |
| NNC(=O)c1ccncc1 | > 5 µM |
| COc1ccc(-n2cnc3cc(NCc4ccco4)ccc32)cc1 | > 5 µM |
| Nc1nc(NC2Cc3ccc(F)cc3C2)nc(N2CCCCC2)n1 (stereo not drawn) | > 5 µM |
| Clc1cccc(-c2nnc(-c3ccccc3)o2)c1 | > 5 µM |
| O=C(Cc1ccccc1F)Nc1nc2ccccc2[nH]1 | > 5 µM |
| Cc1ccc(Oc2ccccc2-c2csc(NC3=NCCCN3)n2)c(C)c1 | > 5 µM |
| CS(=O)(=O)c1ccc(Oc2ccc(Cl)cc2)cc1 | > 5 µM |
| CNc1nc(=O)[nH]cc1F | > 5 µM |
| O=C(CCCC(F)(F)F)N1CCC(c2nc(-c3nccs3)no2)CC1 | > 5 µM |
| c1cc(CN2CCCNCCNCCCNCC2)ccc1CN1CCCNCCNCCCNCC1 | > 5 µM |
| CC[N+]1(C/C2=C/CCCCCC2)CCC(NC(=O)C2c3cc(Cl)ccc3Oc3ccc(Cl)cc32)CC1 (stereo not drawn) | > 5 µM |
| CCCNc1ccc(S(=O)(=O)Nc2cc(C)on2)cc1 | > 5 µM |
| O=C(CP(=O)(O)O)NCCc1cccc(Oc2ccccc2)c1 | > 5 µM |
| O=C(O)COc1cccc2c1CC[C@](O)(COC(=O)N(c1ccccc1)c1ccccc1)C2 | > 5 µM |
| O=[N+]([O-])c1cn(Cc2nc(O)nc(O)c2Br)cn1 | > 5 µM |
| Cc1ncc([N+](=O)[O-])n1CC(O)CN1CCOCC1 (stereo not drawn) | > 5 µM |
| C[C@H]1CC[C@@]2(O)C(C)(C)[C@@H]3CC[C@@]2(C)[C@H]1C3 | > 5 µM |
| COc1ccccc1NC(=O)c1ccccc1Sc1ccc([N+](=O)[O-])cc1 | > 5 µM |

| SMILES | IC50 |
| --- | --- |
| CCCCc1ccc(-c2nc(C)c(C(=O)OC)s2)cc1 | > 5 µM |
| CSC[C@H]1CN(Cc2c[nH]c3c(N)ncnc23)C[C@@H]1O | > 5 µM |
| [N-]=[N+]=N[C@H]1C[C@H](n2ccc(=O)[nH]c2=O)O[C@@H]1CO | > 5 µM |
| O=[N+]([O-])c1cn2c(n1)OC[C@@H](OCc1ccc(OC(F)(F)F)cc1)C2 | > 5 µM |
| Cc1cc(C)n2nc(C(=O)NS(=O)(=O)c3c(C)cccc3OC(F)(F)F)nc2n1 | > 5 µM |
| N#CCN1C(=O)COc2cc(F)c(N3C(=O)c4ccccc4C3=O)cc21 | > 5 µM |
| O=C(NNC(=S)Nc1ccc(Cl)cc1)c1ccncc1 | > 5 µM |
| CC(C)(C)c1cccc(-c2nc3cc(C(=N)N)ccc3[nH]2)c1O | > 5 µM |
| CO[C@@]1(NC(=O)Cc2cccs2)C(=O)N2C(C(=O)O)=C(COC(N)=O)CS[C@@H]21 | > 5 µM |
| Cc1c[nH]c(=O)nc1NCc1ccccc1 | > 5 µM |
| NC(=O)c1cnccn1 | > 5 µM |
| Cc1ncc([N+](=O)[O-])n1CC(C)O (stereo not drawn) | > 5 µM |
| CO/N=C(\C(=O)N[C@@H]1C(=O)N2C(C(=O)OCOC(=O)C(C)(C)C)=C(/C=C\c3scnc3C)CS[C@H]12)c1csc(N)n1 | > 5 µM |
| CCC(CC)[C@H](NC(C)=O)[C@@H]1[C@H](O)[C@@H](C(=O)O)C[C@H]1NC(=N)N | > 5 µM |
| O=C(O)[C@H]1C2CCC(CC2)[C@@H]1Nc1nc(-c2c[nH]c3ncc(F)cc23)ncc1F | > 5 µM |
| Cc1ccccc1NC(=O)Nc1cccc([N+](=O)[O-])c1 | > 5 µM |
| O=C(CSc1nnc(Br)n1-c1ccc(C2CC2)c2ccccc12)Nc1ccc(C(=O)O)cc1Cl | > 5 µM |
| CCCCN1C[C@H](O)[C@@H](O)[C@H](O)[C@H]1CO | > 5 µM |
| Cc1cc(O)c2c(c1)C(=O)c1c(I)c(O)c(I)c(O)c1C2=O | > 5 µM |
| CC(C)n1cnc2c(NCc3ccccc3)nc(NCc3ccccc3)nc21 | > 5 µM |
| C[C@@]1(O)[C@H](O)[C@@H](CO)O[C@H]1n1ccc2c(N)ncnc21 | > 5 µM |
| C=C(C)n1c(=O)n(Cc2ccccc2C)c2ccccc21 | > 5 µM |

| SMILES | IC50 |
| --- | --- |
| C[C@H]1CC[C@]2(NC1)O[C@H]1C[C@H]3[C@@H]4CC[C@H]5C[C@@H](O)CC[C@]5(C)[C@H]4CC[C@]3(C)[C@H]1[C@@H]2C | > 5 µM |
| CC1=C(/C=C/C(C)=C/C=C/C(C)=C/C(=O)Nc2ccc(O)cc2)C(C)(C)CCC1 | > 5 µM |
| CC(C)N(c1cc(-c2ccccc2)sc1C(=O)O)C(=O)[C@H]1CC[C@H](C)CC1 | > 5 µM |
| CC(C)(C)c1ccc(C(Cn2cccc(C(F)(F)F)c2=O)NC2Cc3ccccc3C2)cc1 (stereo not drawn) | 4.6 µM |
| O=C(NCc1ncc(C(F)(F)F)cc1Cl)c1c(Cl)cccc1Cl | > 5 µM |
| O=C(Nc1ccc(-c2ccccc2)cc1)C1=C(O)C(Cc2ccccc2)OC1=O (stereo not drawn) | > 5 µM |
| Oc1ccc(NCc2ccccc2OCc2ccccc2)cc1 | > 5 µM |
| CC(=O)N1c2ccccc2NC2=C(C(=O)CC(C)(C)C2)C1c1ccc(OCc2ccccc2)cc1 (stereo not drawn) | > 5 µM |
| Cc1onc(-c2ccccc2Cl)c1C(=O)N[C@@H]1C(=O)N2[C@@H]1SC(C)(C)[C@@H]2C(=O)O | > 5 µM |
| C[C@@H](O)[C@H](N)C(=O)NS(=O)(=O)c1cccc(-c2ccc3[nH]ncc3c2)c1 | > 5 µM |
| O=C(NN1C(=O)[C@@H]2C3C=CC([C@H]4C[C@@H]34)[C@@H]2C1=O)c1ccc(C(F)(F)F)cc1 | > 5 µM |
| COc1ccc(NC(=O)CC2Sc3ncnn3C2=O)cc1 (stereo not drawn) | > 5 µM |
| COc1ccc(NC(=O)c2cc3ccccn3n2)cc1 | > 5 µM |
| Cc1ccc(C)c(OCCCCCCN2C[C@H](O)[C@@H](O)[C@H](O)[C@H]2CO)c1 | > 5 µM |
| CCc1cc(O)c(Oc2cccnc2N)cc1F | > 5 µM |
| COc1cc(Cc2cnc(N)nc2N)c2c(c1OC)OC(C1CC1)C=C2 (stereo not drawn) | > 5 µM |
| Cc1c(N)cccc1Cn1ccc(OCCc2cccs2)cc1=O | > 5 µM |
| O=C(Cn1cnc2ccccc2c1=O)Nc1ccccc1 | > 5 µM |
| O=S(=O)(Nc1ccc(O)cc1)c1cccc2cccnc12 | > 5 µM |
| CCc1ccccc1OCCN1CCCCCC1 | > 5 µM |
